Laboratory results taken from US20200368247A1, “CENICRIVIROC FOR THE TREATMENT OF FIBROSIS” (Tobira Therapeutics, Inc., priority 2014, published 2020).

Columns and labels:
[1] = Study 202 treatment-emergent laboratory abnormalities (DAIDS grade); assay type: in vivo, human
From the text: The 12th subject (Subject 42001) had 2 consecutive CPK elevations (Grade 3 followed by Grade 4) that returned to normal values while continuing treatment at a subsequent visit. None of the CPK elevations were associated with clinical symptoms; no subjects discontinued due to CPK elevations and there were no differences in AEs related to musculoskeletal disorders between the CVC and EFV arms.
The number of subjects with graded treatment-emergent laboratory abnormalities in selected liver parameters of interest is shown in Table 34. No Grade 4 ALT or AST elevations were observed. Except for one Grade 3 AST elevation, all ALT and AST elevations were Grade 1 or Grade 2. […] All abnormalities in bilirubin were Grade 1 or Grade 2. […]

CCR5 = CCR5 (Homo sapiens, UniProt P51681); assay: CCR5 receptor occupancy / RANTES-induced CCR5 internalization in PBMCs, flow cytometry; assay type: cell-based; settings: PBMCs
Chain of CCR5 (P51681 whole entry): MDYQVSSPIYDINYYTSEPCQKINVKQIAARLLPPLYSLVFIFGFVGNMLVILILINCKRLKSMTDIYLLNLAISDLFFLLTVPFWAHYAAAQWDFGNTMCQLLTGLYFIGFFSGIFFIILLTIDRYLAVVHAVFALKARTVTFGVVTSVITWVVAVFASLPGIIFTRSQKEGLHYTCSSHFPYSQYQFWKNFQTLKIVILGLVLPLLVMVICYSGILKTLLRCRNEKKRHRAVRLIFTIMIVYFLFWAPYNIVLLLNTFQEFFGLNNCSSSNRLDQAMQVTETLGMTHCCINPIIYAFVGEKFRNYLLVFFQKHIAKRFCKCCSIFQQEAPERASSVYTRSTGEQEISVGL
Procedure: The capacity of each drug to inhibit CCR5 or CCR2 internalization was evaluated. Cell-surface expression of CCR5 and CCR2 was assessed by flow cytometry, and fluorescence values were converted into molecules of equivalent soluble fluorescence (MESF).

[2] = Study 201 safety (adverse events, laboratory); assay type: in vivo
Procedure: Participants were required to be antiretroviral treatment-experienced, CCR5 antagonist-naive, with HIV-1 RNA levels of at least 5000 copies/mL and CD4+ cell counts of at least 250 cells/mm^3 was performed.
There were no deaths, SAEs, or other significant AEs, and there were no discontinuations because of an AE. Most treatment-emergent AEs were mild or moderate in severity. […] The most common (≥10%) treatment-emergent AEs in this study were nausea (18.5%), diarrhea (16.7%), headache (14.8%), and fatigue (11.0%).
There were 6 subjects with ALT and/or AST elevations in the 25 mg (2 subjects), 50 mg (2 subjects), 100 mg (1 subject), and 150 mg (1 subject) dose groups, and 1 subject with an AST elevation in the placebo group during the observation period. All elevations were Grade 1, were isolated except in 2 subjects (both in the 50-mg dose group) who had more than a single elevation, and resolved without sequelae. […] The AST elevations observed in subjects in the 100 mg and 150 mg dose groups during treatment (observed in 1 subject in each dose group), returned to normal values during continuation of treatment.

[3] = tested on: RANTES-induced Ca2+ mobilization; assay: RANTES-induced Ca2+ mobilization; assay type: cell-based
[4] = CVC 100 mg (N = 38), through Week 48
[5] = CVC 100 mg (N = 58), through Week 48
[6] = CVC 200 mg (N = 57), through Week 48

CCCCOCCOc1ccc(-c2ccc3c(c2)/C=C(/C(=O)Nc2ccc([S@@+]([O-])Cc4cncn4CCC)cc2)CCCN3CC(C)C)cc1 [CVC, (S)-8-[4-(2-Butoxyethoxy)phenyl]-1-isobutyl-N-(4-{[(1-propyl-1H-imidazol-5-yl)methyl]sulfinyl}phenyl)-1,2,3,4-tetrahydro-1-benzazocine-5-carboxamide]
Hemoglobin decreased, Grade 4 [1, 4]: 1 (2%) n (%) | Neutrophils decreased (Grade 3 or 4) [1, 4]: 2 (3%) n (%) | Neutrophils decreased, Grade 3 [1, 4]: 2 (3%) n (%) | Neutrophils decreased, Grade 4 [1, 4]: 0 n (%) | Phosphate decreased (Grade 3 or 4) [1, 4]: 2 (3%) n (%) | Phosphate decreased, Grade 3 [1, 4]: 2 (3%) n (%) | Phosphate decreased, Grade 4 [1, 4]: 0 n (%) | ALT abnormality, worst Grade 1 ([1]; CVC 100 mg (N = 58)): 4 (7%) n (%) | ALT abnormality, worst Grade 2 ([1]; CVC 100 mg (N = 58)): 3 (5%) n (%) | ALT abnormality, worst Grade 3 ([1]; CVC 100 mg (N = 58)): 0 n (%) | ALT abnormality, worst Grade 4 ([1]; CVC 100 mg (N = 58)): 0 n (%) | AST abnormality, worst Grade 1 ([1]; CVC 100 mg (N = 58)): 8 (14%) n (%) | AST abnormality, worst Grade 2 ([1]; CVC 100 mg (N = 58)): 2 (3%) n (%) | AST abnormality, worst Grade 3 ([1]; CVC 100 mg (N = 58)): 1 (2%) n (%) | AST abnormality, worst Grade 4 ([1]; CVC 100 mg (N = 58)): 0 n (%) | Alanine aminotransferase (ALT) abnormality, any worst grade ([1]; CVC 100 mg (N = 58)): 7 (12%) n (%) | Aspartate aminotransferase (AST) abnormality, any worst grade ([1]; CVC 100 mg (N = 58)): 11 (19%) n (%) | Bilirubin abnormality, any worst grade ([1]; CVC 100 mg (N = 58)): 4 (7%) n (%) | Bilirubin abnormality, worst Grade 1 ([1]; CVC 100 mg (N = 58)): 1 (2%) n (%) | Bilirubin abnormality, worst Grade 2 ([1]; CVC 100 mg (N = 58)): 3 (5%) n (%) | Bilirubin abnormality, worst Grade 3 ([1]; CVC 100 mg (N = 58)): 0 n (%) | Bilirubin abnormality, worst Grade 4 ([1]; CVC 100 mg (N = 58)): 0 n (%) | AST increased, Grade 3 [1, 5]: 1 (2%) n (%) | Any Grade 3 laboratory abnormality [1, 5]: 4 (7%) n (%) | CPK increased, Grade 3 [1, 5]: 2 (3%) n (%) | Any graded (Grade 1-4) laboratory abnormality, % ([1]; CVC 200 mg): 96% | Worst Grade 1 laboratory abnormality, % ([1]; CVC 200 mg): 28% | Worst Grade 2 laboratory abnormality, % ([1]; CVC 200 mg): 47% | Worst Grade 3 laboratory abnormality, % ([1]; CVC 200 mg): 16% | Worst Grade 4 laboratory abnormality, % ([1]; CVC 200 mg): 5% | ALT abnormality, worst Grade 1 ([1]; CVC 200 mg (N = 57)): 6 (11%) n (%) | ALT abnormality, worst Grade 2 ([1]; CVC 200 mg (N = 57)): 2 (4%) n (%) | ALT abnormality, worst Grade 3 ([1]; CVC 200 mg (N = 57)): 0 n (%) | ALT abnormality, worst Grade 4 ([1]; CVC 200 mg (N = 57)): 0 n (%) | AST abnormality, worst Grade 1 ([1]; CVC 200 mg (N = 57)): 6 (11%) n (%) | AST abnormality, worst Grade 2 ([1]; CVC 200 mg (N = 57)): 4 (7%) n (%) | AST abnormality, worst Grade 3 ([1]; CVC 200 mg (N = 57)): 0 n (%) | AST abnormality, worst Grade 4 ([1]; CVC 200 mg (N = 57)): 0 n (%) | Alanine aminotransferase (ALT) abnormality, any worst grade ([1]; CVC 200 mg (N = 57)): 8 (14%) n (%) | Aspartate aminotransferase (AST) abnormality, any worst grade ([1]; CVC 200 mg (N = 57)): 10 (18%) n (%) | Bilirubin abnormality, any worst grade ([1]; CVC 200 mg (N = 57)): 3 (5%) n (%) | Bilirubin abnormality, worst Grade 1 ([1]; CVC 200 mg (N = 57)): 2 (4%) n (%) | Bilirubin abnormality, worst Grade 2 ([1]; CVC 200 mg (N = 57)): 1 (2%) n (%) | Bilirubin abnormality, worst Grade 3 ([1]; CVC 200 mg (N = 57)): 0 n (%) | Bilirubin abnormality, worst Grade 4 ([1]; CVC 200 mg (N = 57)): 0 n (%) | AST increased, Grade 3 [1, 6]: 0 n (%) | AST increased, Grade 4 [1, 6]: 0 n (%) | Any Grade 3 laboratory abnormality [1, 6]: 9 (16%) n (%) | Any Grade 3 or Grade 4 laboratory abnormality [1, 6]: 12 (21%) n (%) | Any Grade 4 laboratory abnormality [1, 6]: 3 (5%) n (%) | Aspartate aminotransferase (AST) increased (Grade 3 or 4) [1, 6]: 0 n (%) | CPK increased, Grade 3 [1, 6]: 6 (11%) n (%) | CPK increased, Grade 4 [1, 6]: 3 (5%) n (%) | Creatine phosphokinase (CPK) increased (Grade 3 or 4) [1, 6]: 9 (16%) n (%) | Fibrinogen decreased (Grade 3 or 4) [1, 6]: 2 (4%) n (%) | Fibrinogen decreased, Grade 3 [1, 6]: 2 (4%) n (%) | Fibrinogen decreased, Grade 4 [1, 6]: 0 n (%) | Hemoglobin decreased (Grade 3 or 4) [1, 6]: 0 n (%) | Hemoglobin decreased, Grade 3 [1, 6]: 0 n (%) | Hemoglobin decreased, Grade 4 [1, 6]: 0 n (%) | Neutrophils decreased (Grade 3 or 4) [1, 6]: 0 n (%) | Neutrophils decreased, Grade 3 [1, 6]: 0 n (%) | Neutrophils decreased, Grade 4 [1, 6]: 0 n (%) | Phosphate decreased (Grade 3 or 4) [1, 6]: 2 (4%) n (%) | Phosphate decreased, Grade 3 [1, 6]: 2 (4%) n (%) | Phosphate decreased, Grade 4 [1, 6]: 0 n (%) | prevention of RANTES-induced CCR5 internalization (CCR5): at lower effective concentrations than MVC | subjects with ALT and/or AST elevations (Grade 1) ([2]; 25 mg): 2 subjects | subjects with ALT and/or AST elevations (Grade 1) ([2]; 50 mg): 2 subjects | subjects with ALT and/or AST elevations (Grade 1) ([2]; 100 mg): 1 subject | subjects with ALT and/or AST elevations (Grade 1) ([2]; 150 mg): 1 subject | tolerability ([2]; 25 to 150 mg once daily, 10 days): generally well tolerated at the doses studied | RANTES-induced Ca2+ mobilization [3]: blocked
